Experimental data as given in patent publication US10869846B2, “N-acetylcysteine amide (NAC amide) in the treatment of diseases and conditions associated with oxidative stress” (SENTIENT LIFESCIENCES, INC., priority 2005, dated 2020).

What was measured:
Assay type in all cases: cell-based
PC12 cells [1] = test: MDA measurement in glutamate-exposed cells; conditions: 24 h
Protocol: MDA measurement: To prepare the solution, 350 μl of straight cell homogenate, 100 μl of 500 ppm BHT (butylated hydroxytoluene), and 550 μl of 10% TCA (trichloroacetic acid) were combined and boiled for 30 min. The tubes were cooled on ice and centrifuged for 10 min at 2500 rpm. Five hundred (500) μl of the supernatant were removed and 500 μl of TBA (thiobarbituric acid) were added. The tubes were boiled again for 30 min, and then cooled on ice. From this solution, 500 μl were removed, added to 1.0 ml of n-butanol, vortexed, and centrifuged for 5 min at 60 g to facilitate a phase separation. The top layer was then filtered through 0.45 μm filters and injected onto a 5 μm C18 column (250×4.6 mm) on a reverse phase HPLC system. The mobile phase consisted of 69.4% 5 mM sodium phosphate buffer (pH=7.0), 30% acetonitrile, and 0.6% THF (tetrahydrofuran). The excitation wavelength was 515 nm; the emission wavelength was 550 nm (Draper H. H. et al., Free Radic Biol Med., 15(4):353-63, 1993).
(§1) Cells were plated and grown for 24 hours, and then they were exposed to glutamate (10 mM) in the presence or absence of NAC amide (750 μM). Twenty-four hours later, the cells were harvested and malondialdehyde levels were measured. Values represent means.+−.SD. Statistically different values of *P<0.002 and **P<0.05 were determined, compared to control. ***P<0.05 compared to glutamate-treated group.

PC12 cells [2] = test: Cysteine levels in cells; conditions: NAC amide 750 μM, glutamate 10 mM, 24 h (FIG. 5)
Protocol: as §1, with “cysteine” for “malondialdehyde”, “means±SD.” for “means.+−.SD.”, “*P<0.005” for “*P<0.002”
(§2) GSH measurement: Cellular levels of GSH were determined by using the method as described in Winters R. A. et al., Anal Biochem., 227(1):14-21, 1995. Cells were seeded at a density of 80,000 cells/cm^2 on poly-D-lysine coated (0.05 mg/ml) 75 cm^2 flasks (5 ml/flask) for GSH measurement. After 24 hours, the flasks were incubated with fresh medium containing glutamate (10 mM), or BSO (0.2 mM) or Glu+BSO+NAC amide (750 μM) at 370 C for another 24 h. After the incubation period, cells were removed from the cultures and homogenized in serine borate buffer (100 mM Tris-HCl, 10 mM boric acid, 5 mM L-serine, 1 mM DETAPAC, pH 7.4). Twenty (20) μl of the diluted cell homogenate were added to 230 μl of serine borate buffer and 750 μl of NPM (1 mM in acetonitrile). The resulting solutions were incubated at room temperature for 5 min. The reaction was stopped by the addition of 5 μl of 2N HCl. The samples were then filtered through a 0.2 μm Acrodisc filter and injected onto the HPLC system.

PC12 cells [3] = test: GSH measurement in cells (NPM/HPLC)
Protocol: as §2, with “Cells” for “GSH measurement: Cellular levels of GSH were determined by using the method as described in Winters R. A. et al., Anal Biochem., 227(1):14-21, 1995. Cells”, “After 24 hours, the flasks were incubated with fresh medium containing glutamate (10 mM), or BSO (0.2 mM) or Glu+BSO+NAC amide (750 μM) at 370 C for another 24 h.” left out
[…] Values represent means.+−.SD. Statistically different values of *P<0.05 were determined, compared to control. **P<0.001 compared to glutamate-treated group. ***P<0.05 compared to glutamate-treated group.

PC12 cells [4] = test: Morphological assessment of glutamate toxicity; conditions: 10 mM glutamate, 750 μM NAC amide, 24 hours
Protocol: Cell culture and toxicity studies: Stock culture of PC12 cells, purchased from ATCC, were grown in 75 cm^2 tissue culture flasks in RPMI 1640, supplemented with 10% (v/v) heat-inactivated horse serum, and 5% (v/v) fetal bovine serum, to which 1% (v/v) penicillin and streptomycin were added. Cultures were maintained at 37° C. in a humidified atmosphere containing 5% CO2. The cells were passaged twice a week. Unless specified, all of the experiments were performed using Dulbecco's modified Eagle's medium (DMEM) as differentiation medium, supplemented with 0.5% (v/v) fetal bovine serum, 1% (v/v) penicillin and streptomycin. PC12 cells were plated at a density of 25×10^3 cells/well in a 24-well, collagen-coated plate for morphological assessment. The plate was divided into five groups in triplicate: 1) control: no glutamate, no NAC amide; 2) Nerve Growth Factor (NGF) control: NGF (100 ng/ml), no glutamate, no NAC amide; 3) NAC amide only: NGF (100 ng/ml), no glutamate, NAC amide (750 μM); 4) glutamate only: NGF (100 ng/ml), glutamate (10 mM), no NAC amide; and 5) Glu+NAC amide: NGF (100 ng/ml), glutamate (10 mM), NAC amide (750 μM). […]
Glutamate toxicity was evaluated by 1) morphological assessment of PC12 cells in the presence of glutamate; 2) measuring the amount of LDH released in the media 24 h after glutamate exposure; and 3) measuring cell viability using the MTS assay. […]

[5] = GLU (10 mM) + NAC amide (750 μM)

Substance: N-acetylcysteine amide [NAC amide]
- MDA Levels (PC12 cells [1]; [5]): 88 ± 11 nM/100 mg protein
- MDA Levels (PC12 cells [1]; NAC amide (750 μM) alone): 81 ± 22 nM/100 mg protein
- cysteine levels compared to the control group (PC12 cells [2]): increase
- increase of PC12 cell GSH level compared to the control group (PC12 cells [3]; 750 μM, 24 hour treatment): two fold
- GSH Levels (PC12 cells [3]; GLU (10 mM) + BSO (0.2 mM) + NAC amide (750 μM)): 30 ± 4.3 nM/mg protein
- GSH Levels (PC12 cells [3]; [5]): 88 ± 11.0 nM/mg protein
- GSH Levels (PC12 cells [3]; NAC amide (750 μM) alone): 112 ± 17.8 nM/mg protein
- cells' GSH levels maintained in GSH synthesis-arrested cells (PC12 cells [3]; glutamate + BSO (0.2 mM)): 56%
- protection from glutamate toxicity (neurite morphology, light microscopy) (PC12 cells [4]): slightly decreasing the bleb formation on neurites
